{"source": "patent US20060117411A1", "about": "“Enhancing plant pathogen resistance via increasing BiP levels” (priority 1998, published 2006)", "test_system": "PR1 mRNA", "test": "SA spraying of tobacco plants, Northern blot of PR1 mRNA", "format": "in vivo, Nicotiana tabacum", "procedure": "It has been shown that SA is involved in the induction of PR genes (reviewed by Malamy and Klessig, 1992) and that this signal molecule also induces the expression of ER chaperones (Denecke et al, 1995). We wanted to investigate whether ER chaperone induction is a consequence of the high synthesis rates of PR genes and used BiP as a model system. Tobacco plants were sprayed with SA (5 mM) and the exact timing of the SA-mediated induction of PR-gene PRI was compared to that of BiP. PR1 was chosen as a representative marker for SA-mediated induction of PR genes as its response to SA is faster and more pronounced than that of acidic chitinase, basic chitinase and basic β-1.3 glucanase (Vidal et al, 1997). […] In contrast SA-induced transcription of PR1 starts only after 6-8 hours and continues to accumulate upto 16 hours after treatment. At this time-point, BiP mRNA levels start to decrease again. We have shown previously that PR1 continuous to accumulate until 48 hours after SA treatment using the same experimental system (Vidal et al, 1997). […] BiP protein levels were also shown to increase (FIG. 7B), with a significant increase noticeable after 4-6 hours of induction.\nTo investigate further similarities and differences in the SA-mediated induction of BiP and PR genes, we tested if the presence of light is required for the induction. The rationale for this experiment was derived from the observation that SA inhibits catalase, resulting in an increase of active oxygen species in the plant, which would then induce PR genes such as PR1 (Chen et al, 1993). […]\nWe have shown that the SA-induced expression of PR1 is inhibited in a concentration dependent fashion by the presence of Erwinia carotovora culture filtrate containing cell wall-degrading enzymes (Vidal et al, 1997). […] Total RNA was extracted and the expression of chaperones was determined in relation to PR1. […]", "data": [{"compound": "O=C(O)c1ccccc1O", "note": "[SA, Salicylic Acid]", "values": [{"measurement": "PR1 induction during SA-treatment in the absence of light", "setting": "SA 5 mM, 6 and 16 hours, dark vs light", "value": "almost completely abolished"}, {"measurement": "time after which SA-induced transcription of PR1 starts", "setting": "sprayed with SA 5 mM", "value": "6 to 8", "unit": "h"}, {"measurement": "time up to which PR1 continues to accumulate", "setting": "sprayed with SA 5 mM", "value": "≤ 16", "unit": "h"}]}]}
